Experimental data: patent publication US7368467B2, “Ion channel modulators” (Wyeth, priority 2004, dated 2008)

The molecules below were run on calcium channels (e.g., Cav2.2 subfamily) (assay: Oocyte assay, calcium channel modulation in Xenopus oocyte heterologous expression system). Conditions: calcium channel (e.g., Cav2.2 subfamily).
Type: cell-based
Protocol: Representative compounds of the formulae herein are screened for activity against calcium channel targets in an assay essentially as described in Neuron January 1997, 18(11): 153-166, Lin et. al.; J. Neurosci. Jul. 1, 2000, 20(13):4768-75, J. Pan and D. Lipsombe; and J. Neurosci., Aug. 15, 2001, 21(16):5944-5951, W. Xu and D. Lipscombe, using Xenopus oocyte heterologeous expression system. The assay is performed on various calcium channels (e.g., Cav2.2subfamily) whereby the modulation of the calcium channel is measured for each compound. Table 2 contains IC50's for representative compounds disclosed in the invention.

| IC50 [µM] | SMILES |
| --- | --- |
| 6.63 | Cc1ccc(-n2c(-c3ccccc3)cnc2SCc2nc3ccccc3[nH]2)cc1 [Compound 2] |
| 5.7 | Cc1ccc(-n2c(-c3ccc(F)cc3)cnc2SCc2nc3ccccc3[nH]2)cc1 [Compound 4] |
| 5.4 | COc1ccc(-n2c(-c3ccc(F)cc3)cnc2SCC(=O)NCc2ccco2)cc1 [Compound 234] |

These molecules were tested on calcium channel (e.g., L-type, N-type, etc.) (assay: HEK assay, whole-cell voltage clamp of calcium channel currents in transiently transfected HEK-293T/17 cells). Conditions: whole-cell patch clamp, holding potential −100 mV, steps to about +10 mV.
Type: cell-based
Protocol: HEK-293T/17 cells are transiently transfected in a similar manner as described in FuGENE 6 Package Insert Version 7, April 2002, Roche Applied Science, Indianapolis, Ind. The cells are plated at 2.5×10^5 cells in 2 mL in a 6-well plate in incubator for one night and achieve a 30˜40% confluence. In a small sterile tube, add sufficient serum-free medium as diluent for FuGENE Transfection Reagent (Roche Applied Science, Indianapolis, Ind.), to a total volume of 100 μL. Add 3 μL of FuGENE 6 Reagent directly into this medium. The mixture is tapped gently to mix. 2 μg of DNA solution (0.8-2.0 μg/μL) is added to the prediluted FuGENE 6 Reagent from above. The DNA/Fugene 6 mixture is gently pipeted to mix the contents and incubated for about 15 minutes at room temperature. The complex mixture is then added to the HEK-293T/17 cells, distributing it around the well, and swirled to ensure even dispersal. The cells are returned to the incubator for 24 hrs. The transfected cells are then replated at density 2.5×10^5 in a 35 mm dish with 5 glass coverslips and grow in low serum(1%) media for 24 hrs. Coverslips with isolated cells are then transferred into chamber and calcium channel (e.g., L-type, N-type, etc.) current or other currents for counter screening are recorded from the transiently transfected HEK-293T/1 7 cells.
The whole-cell voltage clamp configuration of the patch clamp technique is employed to evaluate voltage-dependent calcium currents essentially as described by Thompson and Wong (1991) J. Physiol., 439: 671-689. To record calcium channel (e.g., L-type, N-type, etc.) currents for evaluation of inhibitory potency of compounds (steady-state concentration-response analysis), five pulses of 20-30 ms voltage steps to about +10 mV (the peak of the current voltage relationship) are delivered at five Hz every 30 second from a holding potential at −100 mV. Compound evaluations were carried out essentially as described by Sah D W and Bean B P (1994) Mol Pharmacol. 45(1):84-92. Table 3 contains IC50's for representative compounds.

| IC50 [µM] | SMILES |
| --- | --- |
| 0.793 | COc1ccc(OC)c(-c2cnc(SCc3nc4ccccc4[nH]3)n2-c2ccc(Cl)cc2)c1 [Compound 7] |
| 0.187 | COc1ccccc1-c1cnc(SCc2cnc(C)s2)n1-c1ccc(Cl)cc1 [Compound 8] |
| 0.328 | Cc1ccc(F)cc1-c1cnc(SCc2nc3ccccc3[nH]2)n1-c1ccc(Cl)cc1 [Compound 13] |
